Values after ≈ are worked out from the molar mass of the structure shown. Values belong to the compound of their own block, whether it stands above or below them.
What was measured:
[1] = anatomic pathology (histopathology of heart and kidney) in mice; assay type: in vivo; settings: CD-1 mice, 20 mg/kg intravenously daily for 9 days, necropsy day 10, microscopic histopathology
Experimental: Samples of tissues from necropsied mice were formalin-fixed, paraffin-embedded, sectioned, stained with hematoxylin and eosin, and examined microscopically. Histopathologic findings were recorded. These findings were subjectively graded on a scale corresponding to slight, mild, moderate, marked and severe as compared to untreated controls.

Escherichia coli = test: in vitro antibacterial evaluation, MIC by broth dilution; assay type: cell-based; settings: 18 hours at 35° C.
Method in brief: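 MIC is the lowest antibiotic concentration (tested 64-0.06 μg/mL) preventing growth of a 5×10^5 CFU/mL inoculum. Determined by broth dilution in Mueller-Hinton II medium following NCCLS standard M7-A2.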

Enterococcus sp. = test: as above; assay type: cell-based; settings: broth dilution, 18 hours at 35° C.
Method in brief: (§1)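 Step 1: dilute antibiotic across 64-0.06 μg/mL in Muller-Hinton II […]. Step 2: inoculate at 5×10^5 CFU/mL.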

Staphylococcus sp. = test: as above; assay type: cell-based; settings: broth dilution, 18 hours at 35° C.; for MIC Staphylococcus aureus-SMITH (GC 4543): strain GC 4543; for MIC Staphylococcus haemolyticus (GC 4546): strain GC 4546
Method in brief: as §1

Streptococcus sp. = test: as above; assay type: cell-based; settings: broth dilution, 18 hours at 35° C.
Method in brief: as §1

MIC Escherichia coli (ATCC 25922) (Escherichia coli): >128 µg/mL
MIC Escherichia coli (GC 4559) (Escherichia coli): >128 µg/mL
MIC Escherichia coli (GC 4560) (Escherichia coli): >128 µg/mL
MIC Enterococcus avium (GC 4558) (Enterococcus sp.; Enterococcus avium (GC 4558)): 128 µg/mL (≈ 96 µM)
MIC Enterococcus faecalis (ATCC 29212) (Enterococcus sp.; Enterococcus faecalis (ATCC 29212)): >128 µg/mL
MIC Enterococcus faecalis (GC 4552) (Enterococcus sp.; Enterococcus faecalis (GC 4552)): >128 µg/mL
MIC Enterococcus faecalis (GC 4553) (Enterococcus sp.; Enterococcus faecalis (GC 4553)): >128 µg/mL
MIC Enterococcus faecalis (GC 4554) (Enterococcus sp.; Enterococcus faecalis (GC 4554)): >128 µg/mL
MIC Enterococcus faecalis (GC 6189) (Enterococcus sp.; Enterococcus faecalis (GC 6189)): >128 µg/mL
MIC Enterococcus faecium (GC 2243) (Enterococcus sp.; Enterococcus faecium (GC 2243)): >128 µg/mL
MIC Enterococcus faecium (GC 4556) (Enterococcus sp.; Enterococcus faecium (GC 4556)): >128 µg/mL
MIC Enterococcus faecium (GC 4557) (Enterococcus sp.; Enterococcus faecium (GC 4557)): 128 µg/mL (≈ 96 µM)
MIC Enterococcus avium (GC 4558) (Enterococcus sp.): 128 µg/mL (≈ 96 µM)
MIC Enterococcus faecalis (ATCC 29212) (Enterococcus sp.): >128 µg/mL
MIC Enterococcus faecalis (GC 2242) (Enterococcus sp.): >128 µg/mL
MIC Enterococcus faecalis (GC 2691) (Enterococcus sp.): >128 µg/mL
MIC Enterococcus faecalis (GC 3059) (Enterococcus sp.): >128 µg/mL
MIC Enterococcus faecalis (GC 4552) (Enterococcus sp.): >128 µg/mL
MIC Enterococcus faecalis (GC 4553) (Enterococcus sp.): >128 µg/mL
MIC Enterococcus faecalis (GC 4554) (Enterococcus sp.): >128 µg/mL
MIC Enterococcus faecalis (GC 6189) (Enterococcus sp.): >128 µg/mL
MIC Enterococcus faecium (GC 2243) (Enterococcus sp.): >128 µg/mL
MIC Enterococcus faecium (GC 4556) (Enterococcus sp.): >128 µg/mL
MIC Enterococcus faecium (GC 4557) (Enterococcus sp.): 128 µg/mL (≈ 96 µM)
MIC Enterococcus faecalis (GC 2242) (Enterococcus sp.; strain GC 2242): >128 µg/mL
MIC Enterococcus faecalis (GC 2691) (Enterococcus sp.; strain GC 2691): >128 µg/mL
MIC Enterococcus faecalis (GC 3059) (Enterococcus sp.; strain GC 3059): >128 µg/mL
MIC Staphylococcus aureus (ATCC 29213) (Staphylococcus sp.; strain ATCC 29213): >128 µg/mL
MIC Staphylococcus aureus (GC 1131) (Staphylococcus sp.; strain GC 1131): >128 µg/mL
MIC Staphylococcus aureus (GC 3051) (Staphylococcus sp.; strain GC 3051): >128 µg/mL
MIC Staphylococcus aureus (GC 3053) (Staphylococcus sp.; strain GC 3053): >128 µg/mL
MIC Staphylococcus aureus (GC 4541) (Staphylococcus sp.; strain GC 4541): >128 µg/mL
MIC Staphylococcus aureus (GC 4542) (Staphylococcus sp.; strain GC 4542): >128 µg/mL
MIC Staphylococcus aureus-SMITH (GC 4543) (Staphylococcus sp.): >128 µg/mL
MIC Staphylococcus aureus (GC 4544) (Staphylococcus sp.; strain GC 4544): >128 µg/mL
MIC Staphylococcus aureus (GC 4545) (Staphylococcus sp.; strain GC 4545): >128 µg/mL
MIC Coagulase Negative Staphylococcus (GC 4547) (Staphylococcus sp.; strain GC 4547): >128 µg/mL
MIC Coagulase Negative Staphylococcus (GC 4548) (Staphylococcus sp.; strain GC 4548): >128 µg/mL
MIC Coagulase Negative Staphylococcus (GC 4549) (Staphylococcus sp.; strain GC 4549): >128 µg/mL
MIC Coagulase Negative Staphylococcus (GC 4551) (Staphylococcus sp.; strain GC 4551): >128 µg/mL
MIC Coagulase Negative Staphylococcus (GC 6257) (Staphylococcus sp.; strain GC 6257): >128 µg/mL
MIC Streptococcus agalactiae (GC 4564) (Streptococcus sp.): 128 µg/mL (≈ 96 µM)
MIC Streptococcus pneumoniae (ATCC 6301) (Streptococcus sp.): >128 µg/mL
MIC Streptococcus pneumoniae (GC 1894) (Streptococcus sp.): 128 µg/mL (≈ 96 µM)
MIC Streptococcus pneumoniae (GC 4565) (Streptococcus sp.): >128 µg/mL
MIC Streptococcus pyogenes (GC 4563) (Streptococcus sp.): >128 µg/mL
MIC Streptococcus pneumoniae (ATCC 6301) (Streptococcus sp.; strain ATCC 6301): >128 µg/mL
MIC Streptococcus pneumoniae (GC 1894) (Streptococcus sp.; strain GC 1894): 128 µg/mL (≈ 96 µM)
MIC Streptococcus pyogenes (GC 4563) (Streptococcus sp.; strain GC 4563): >128 µg/mL
MIC Streptococcus agalactiae (GC 4564) (Streptococcus sp.; strain GC 4564): 128 µg/mL (≈ 96 µM)
MIC Streptococcus pneumoniae (GC 4565) (Streptococcus sp.; strain GC 4565): >128 µg/mL
SMILES: CN=C1N(C)CC(CC2NC(=O)C(Cc3ccc(OC4OC(CO)C(OC5OC(CO)C(O)C(O)C5O)C(O)C4O)cc3)NC(=O)C(C(C)c3ccccc3)NC(=O)CNC(=O)C(CO)NC(=O)C(CC3CN(C)C(=NC)N3C3OC(CO)C(O)C(O)C3O)NC2=O)N1C (stereo not drawn) [Example 74, Cyclo[3-[1,3-dimethyl-2-(methylimino)imidazolidin-4-yl]alanyl-3-[3-hexopyranosyl-1-methyl-2-(methylimino)imidazolidin-4-yl]alanylserylglycyl-β-methylphenylalanyl-O-(4-O-hexopyranosylhexopyranosyl)tyrosyl]]
Anatomical Pathology (Day 10), Heart [1]: 0
Anatomical Pathology (Day 10), Kidney [1]: 0
MIC Staphylococcus haemolyticus (GC 4546) (Staphylococcus sp.): >128 µg/mL

SMILES: CC(c1ccccc1)C1NC(=O)CNC(=O)C(CO)NC(=O)C(C(O)C2CN(Cc3ccc(-c4ccccc4)cc3)C(=N)N2C2OC(CO)C(O)C(O)C2O)NC(=O)C(C(O)C2CNC(=NCc3ccc(-c4ccccc4)cc3)N2Cc2ccc(-c3ccccc3)cc2)NC(=O)C(Cc2ccc(OC3OC(CO)C(OC4OC(CO)C(O)C(O)C4O)C(O)C3O)cc2)NC1=O (stereo not drawn) [Example 66, Cyclo[glycyl-β-methylphenylalanyl-O-(4-O-hexopyranosylhexopyranosyl)tyrosl-3-[3-(4-phenylbenzyl)-2-(4-phenylbenzyl)iminolimidazolidin-4-yl]seryl-3-[3-hexopyranosyl-2-imino-1-(4-phenylbenzyl)-imidazolidin-4-yl]serylseryl]]
Anatomical Pathology (Day 10), Heart [1]: 0
Anatomical Pathology (Day 10), Kidney [1]: 0
MIC Escherichia coli (ATCC 25922) (Escherichia coli): >128 µg/mL
MIC Escherichia coli (GC 4559) (Escherichia coli): >128 µg/mL
MIC Escherichia coli (GC 4560) (Escherichia coli): 4 µg/mL (≈ 2.23 µM)
MIC Enterococcus avium (GC 4558) (Enterococcus sp.): 4 µg/mL (≈ 2.23 µM)
MIC Enterococcus faecalis (ATCC 29212) (Enterococcus sp.): 16 µg/mL (≈ 8.92 µM)
MIC Enterococcus faecalis (GC 2242) (Enterococcus sp.): 16 µg/mL (≈ 8.92 µM)
MIC Enterococcus faecalis (GC 2691) (Enterococcus sp.): 32 µg/mL (≈ 17.8 µM)
MIC Enterococcus faecalis (GC 3059) (Enterococcus sp.): 32 µg/mL (≈ 17.8 µM)
MIC Enterococcus faecalis (GC 4552) (Enterococcus sp.): 32 µg/mL (≈ 17.8 µM)
MIC Enterococcus faecalis (GC 4553) (Enterococcus sp.): 8 µg/mL (≈ 4.46 µM)
MIC Enterococcus faecalis (GC 4554) (Enterococcus sp.): 64 µg/mL (≈ 35.7 µM)
MIC Enterococcus faecalis (GC 6189) (Enterococcus sp.): 32 µg/mL (≈ 17.8 µM)
MIC Enterococcus faecium (GC 2243) (Enterococcus sp.): 8 µg/mL (≈ 4.46 µM)
MIC Enterococcus faecium (GC 4556) (Enterococcus sp.): 32 µg/mL (≈ 17.8 µM)
MIC Enterococcus faecium (GC 4557) (Enterococcus sp.): 4 µg/mL (≈ 2.23 µM)
MIC Enterococcus faecalis (GC 2242) (Enterococcus sp.; strain GC 2242): 16 µg/mL (≈ 8.92 µM)
MIC Enterococcus faecalis (GC 2691) (Enterococcus sp.; strain GC 2691): 32 µg/mL (≈ 17.8 µM)
MIC Enterococcus faecalis (GC 3059) (Enterococcus sp.; strain GC 3059): 32 µg/mL (≈ 17.8 µM)
MIC Staphylococcus aureus-SMITH (GC 4543) (Staphylococcus sp.): 8 µg/mL (≈ 4.46 µM)
MIC Staphylococcus haemolyticus (GC 4546) (Staphylococcus sp.): 4 µg/mL (≈ 2.23 µM)
MIC Streptococcus agalactiae (GC 4564) (Streptococcus sp.): 32 µg/mL (≈ 17.8 µM)
MIC Streptococcus pneumoniae (ATCC 6301) (Streptococcus sp.): 32 µg/mL (≈ 17.8 µM)
MIC Streptococcus pneumoniae (GC 1894) (Streptococcus sp.): 32 µg/mL (≈ 17.8 µM)
MIC Streptococcus pneumoniae (GC 4565) (Streptococcus sp.): 64 µg/mL (≈ 35.7 µM)
MIC Streptococcus pyogenes (GC 4563) (Streptococcus sp.): 16 µg/mL (≈ 8.92 µM)
MIC Streptococcus pneumoniae (ATCC 6301) (Streptococcus sp.; strain ATCC 6301): 32 µg/mL (≈ 17.8 µM)
MIC Streptococcus pneumoniae (GC 1894) (Streptococcus sp.; strain GC 1894): 32 µg/mL (≈ 17.8 µM)
MIC Streptococcus pyogenes (GC 4563) (Streptococcus sp.; strain GC 4563): 16 µg/mL (≈ 8.92 µM)
MIC Streptococcus agalactiae (GC 4564) (Streptococcus sp.; strain GC 4564): 32 µg/mL (≈ 17.8 µM)
MIC Streptococcus pneumoniae (GC 4565) (Streptococcus sp.; strain GC 4565): 64 µg/mL (≈ 35.7 µM)

Source: patent US6914045B2, “Glycopeptide antibiotics” (Wyeth Holdings Corporation, priority 2001, dated 2005)
